Patent publication US8088886B2, “Lipoprotein associated phospholipase A2, inhibitors thereof and use of the same in diagnosis and therapy” (Smith-Kline Beecham P.L.C., priority 1993, dated 2012)

Each compound was assayed against T1, Lp-PLA2 (Homo sapiens, UniProt Q13093) (assay: Screen for Lp-PLA2 inhibition (turnover of artificial substrate (A), absorbance at 405 nm)). Conditions: 37° C., pH 7.4, 10 min pre-incubation, 20 μM substrate (A).
T1 construct: from tissue; host or cells: LDL from plasma (apheresis)
T1 sequence (Q13093 22-441): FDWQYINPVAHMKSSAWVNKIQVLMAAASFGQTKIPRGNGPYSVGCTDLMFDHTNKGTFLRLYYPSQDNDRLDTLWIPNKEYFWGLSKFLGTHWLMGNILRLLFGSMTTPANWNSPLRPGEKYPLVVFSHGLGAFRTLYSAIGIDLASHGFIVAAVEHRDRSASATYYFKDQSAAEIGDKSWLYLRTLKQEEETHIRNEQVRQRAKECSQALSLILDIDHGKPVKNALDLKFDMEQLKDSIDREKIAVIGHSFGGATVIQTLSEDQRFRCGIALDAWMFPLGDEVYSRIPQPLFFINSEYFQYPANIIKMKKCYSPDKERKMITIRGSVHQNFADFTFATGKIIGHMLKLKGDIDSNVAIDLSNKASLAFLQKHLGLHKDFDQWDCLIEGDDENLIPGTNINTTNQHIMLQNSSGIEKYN
Assay type: biochemical
Protocol: 1. Screen for Lp-PLA2 Inhibition.
Enzyme activity was determined by measuring the rate of turnover of the artificial substrate (A) at 37° C. in 50 mM HEPES (N-2-hydroxyethylpiperazine-N′-2-ethanesulphonic acid) buffer containing 150 mM NaCl, pH 7.4.
Assays were performed in 96 well titre plates.
Lp-PLA2 was pre-incubated at 37° C. with vehicle or test compound for 10 min in a total volume of 180 μl. The reaction was then initiated by the addition of 20 μl 10× substrate (A) to give a final substrate concentration of 20 μM. The reaction was followed at 405 nm for 20 minutes using a plate reader with automatic mixing. The rate of reaction was measured as the rate of change of absorbance.
With `CCCCCCCCCCCCCCCCCCOCC(COP(=O)([O-])OCC[S+](C)C)NC(C)=O` (centres unmarked) [Compound 3] the IC50 was 1000 nM.
In the case of `CCCCCCCCCCCCCCCCCCOCC(COP(=O)([O-])OCC[n+]1ccn(C)c1)NC(C)=O` (centres unmarked) [Compound 8], the IC50 is reported as 550 nM.
`CCCCCCCCCCCCCCCCOCC(COP(=O)([O-])OCC[N+](C)(C)C)NC(C)=O` (centres unmarked) [Compound 1] showed an IC50 of 800 nM.
Compound `CCCCCCCCCCCCCCCCCCOCC(COP(=O)([O-])OCC[N+](C)(C)C)NC(C)=O` (centres unmarked) [Compound 2] has an IC50 of 3500 nM.
`CCCCCCCCCCCCCCCCCCOCC(COP(=O)([O-])OCC[N+](C)(C)C)NC(=O)C(F)(F)F` (centres unmarked) [Compound 9] was tested, and the IC50 was 2500 nM.
